Assays:
[1] = tested on: tumor-specific antibody-glucosidase conjugate; details: in vitro
alpha-glucosidase = details: in vitro, enzyme alpha-glucosidase
[2] = target: T1, 431/26 hum VH huβGlc 1H fusion protein (Homo sapiens, UniProt P01860+P08236); assay: prodrug cleavage by β-glucuronidase (fusion protein), HPLC; assay type: biochemical
T1 construct: made in house; host or cells: BHK cells
Procedure: (§1) It was shown in Example 17 that the β-glucuronidase portion of the fusion protein is able, like the native human enzyme, to cleave the β-glucuronide of 4-methylumbelliferol. In the investigations which are described hereinafter, the substrate used for the enzymatic cleavage was a β-glucuronide, linked via a spacer group, of the cytostatic daunomycin. The specific procedure for these investigations was as follows:
(§2) 4 mg of the compound N-(4-hydroxy-3-nitrobenzyloxy-carbonyl)daunorubicin β-D-glucuronide (prodrug), which is described in French Patent Application (No. d'Enregistrement National: 9105326) were dissolved in 1 ml of 20 mM phosphate buffer, pH 7.2. 35 μl of the fusion protein (Example 21) or of human β-glucuronidase (total concentration in each case 6.5 U/ml; 1 U=cleavage of 1 μmol of 4-methyl-umbelliferol/min at 37° C.) were pipetted into 5 μl portions of this substrate solution and incubated in the dark at 37° C. Samples (5 μl) of the incubation mixture were removed after various times and immediately analyzed by high pressure liquid chromatography under the following conditions:
(§3) Nucleosil 100 RP 18, 5 μm particle diameter, 125×4.6 mm
(§4) Gradient of solution A (100% acetonitrile) and solution B (20 mM phosphate buffer pH.3.0)
(§5) Detection: fluorescence, excitation 495 nm, emission […]
(§6) Data analysis: Beckman System Gold Software

human β-glucuronidase = target: T2, human β-glucuronidase (Homo sapiens, UniProt P08236); assay: prodrug cleavage by β-glucuronidase (human, recombinant), HPLC; assay type: biochemical
T2 sequence (P08236 23-651): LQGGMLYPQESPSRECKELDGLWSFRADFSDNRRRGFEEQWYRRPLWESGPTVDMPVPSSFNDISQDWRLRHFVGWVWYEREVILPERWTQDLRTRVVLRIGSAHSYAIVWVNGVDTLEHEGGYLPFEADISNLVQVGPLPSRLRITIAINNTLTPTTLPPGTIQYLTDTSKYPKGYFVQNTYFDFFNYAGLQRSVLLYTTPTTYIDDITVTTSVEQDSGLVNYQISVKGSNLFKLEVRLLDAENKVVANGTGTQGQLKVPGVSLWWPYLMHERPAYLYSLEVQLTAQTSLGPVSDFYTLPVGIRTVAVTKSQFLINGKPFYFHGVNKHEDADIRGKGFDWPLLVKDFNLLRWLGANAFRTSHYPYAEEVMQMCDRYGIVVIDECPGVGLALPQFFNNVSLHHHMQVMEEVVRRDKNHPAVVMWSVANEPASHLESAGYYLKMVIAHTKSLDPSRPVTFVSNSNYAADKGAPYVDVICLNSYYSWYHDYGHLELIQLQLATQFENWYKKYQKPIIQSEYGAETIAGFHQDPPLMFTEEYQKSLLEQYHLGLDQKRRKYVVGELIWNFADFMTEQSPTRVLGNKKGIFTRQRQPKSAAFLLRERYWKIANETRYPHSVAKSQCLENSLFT
Procedure: as §1, §2, §3, §4, §5, §6

T1 sequence (P01860+P08236 fused): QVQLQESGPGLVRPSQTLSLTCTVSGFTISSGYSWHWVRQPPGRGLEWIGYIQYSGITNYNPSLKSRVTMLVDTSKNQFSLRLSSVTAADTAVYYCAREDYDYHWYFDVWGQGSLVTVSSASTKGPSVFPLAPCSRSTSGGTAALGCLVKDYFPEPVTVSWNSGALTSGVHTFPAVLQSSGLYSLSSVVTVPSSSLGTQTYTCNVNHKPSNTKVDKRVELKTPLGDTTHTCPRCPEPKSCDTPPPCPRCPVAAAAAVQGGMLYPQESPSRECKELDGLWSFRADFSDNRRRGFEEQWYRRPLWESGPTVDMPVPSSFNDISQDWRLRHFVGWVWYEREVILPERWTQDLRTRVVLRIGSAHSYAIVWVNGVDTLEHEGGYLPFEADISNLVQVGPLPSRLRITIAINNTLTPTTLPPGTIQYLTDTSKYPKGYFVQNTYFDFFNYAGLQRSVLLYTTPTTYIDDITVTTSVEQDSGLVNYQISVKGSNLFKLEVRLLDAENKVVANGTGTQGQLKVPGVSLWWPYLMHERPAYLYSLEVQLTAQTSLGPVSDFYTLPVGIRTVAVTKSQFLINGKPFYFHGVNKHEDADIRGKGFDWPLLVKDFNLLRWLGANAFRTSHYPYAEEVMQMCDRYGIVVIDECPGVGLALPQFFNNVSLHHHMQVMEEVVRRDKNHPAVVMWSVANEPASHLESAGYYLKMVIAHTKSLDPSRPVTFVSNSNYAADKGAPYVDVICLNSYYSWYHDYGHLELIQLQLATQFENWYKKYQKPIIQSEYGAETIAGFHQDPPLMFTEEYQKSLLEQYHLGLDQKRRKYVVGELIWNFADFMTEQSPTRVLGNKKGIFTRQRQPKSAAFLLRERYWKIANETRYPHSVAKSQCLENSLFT

## 4′-O-alpha-D-glucopyranosyl-etoposide
[1]
  cleavage into etoposide and D-glucose: can be cleaved in vitro into etoposide and D-glucose
alpha-glucosidase
  cleavage into etoposide and D-glucose: can be cleaved in vitro into etoposide and D-glucose

## COc1cccc2c1C(=O)c1c(O)c3c(c(O)c1C2=O)C[C@@](O)(C(C)=O)C[C@@H]3O[C@H]1C[C@H](NC(=O)OCc2ccc(O[C@@H]3O[C@H](C(=O)O)[C@@H](O)[C@H](O)[C@H]3O)c([N+](=O)[O-])c2)[C@H](O)[C@H](C)O1 [Prodrug, N-(4-hydroxy-3-nitrobenzyloxy-carbonyl)daunorubicin β-D-glucuronide]
[2]; t 0 min
  DNM area % (liberated daunomycin): 1.1 area %
  Prodrug area %: 98.9 area %
[2]; t 50 min
  DNM area % (liberated daunomycin): 18.9 area %
  Prodrug area %: 81.1 area %
[2]; t 135 min
  DNM area % (liberated daunomycin): 48.3 area %
  Prodrug area %: 51.7 area %
[2]; t 190 min
  DNM area % (liberated daunomycin): 67.0 area %
  Prodrug area %: 33.0 area %
[2]; t 247 min
  DNM area % (liberated daunomycin): 78.0 area %
  Prodrug area %: 22.0 area %
[2]; t 317 min
  DNM area % (liberated daunomycin): 87.6 area %
  Prodrug area %: 12.4 area %
Human β-glucuronidase; t 0 min
  DNM area % (liberated daunomycin): 0.8 area %
  Prodrug area %: 99.2 area %
Human β-glucuronidase; t 57 min
  DNM area % (liberated daunomycin): 64.0 area %
  Prodrug area %: 36.0 area %
Human β-glucuronidase; t 130 min
  DNM area % (liberated daunomycin): 89.7 area %
  Prodrug area %: 10.3 area %
Human β-glucuronidase; t 227 min
  DNM area % (liberated daunomycin): 90.7 area %
  Prodrug area %: 9.3 area %

Reference: patent US6610299B1, “Glycosyl-etoposide prodrugs, a process for preparation thereof and the use thereof in combination with functionalized tumor-specific enzyme conjugates” (Aventis Pharma Deutschland GmbH, priority 1989, dated 2003)
